{
  "source": "patent US20260166182A1",
  "about": "“CYANINE-BASED FLUOROPHORES” (The General Hospital Corporation, priority 2022, published 2026)",
  "key": {"[1]": {"test_system": "immune cells from bone marrow and tumor tissues", "test": "Flow cytometry analysis of fluorophore-targeted immune cells from bone marrow and tumor", "type": "in vivo, mouse", "method": "Flow cytometry analysis: Bone marrow tissue was mechanically dissociated and digested with collagenase D (175 unit/mL, Roche) and DNase I (100 unit/mL, Roche) followed by EDTA (2 mM, Invitrogen). Erythrocytes were removed using RBC Lysis Buffer (Invitrogen). Tumor tissue was mechanically dissociated and digested with collagenase I (175 unit/mL, Thermo-fisher), Collagenase IV (250 unit/mL, Thermo-fisher, 1700019), and DNase I (100 unit/mL) followed by EDTA ([…]). Immune cells were isolated from cell suspensions of the bone marrow or tumor tissue using Ficoll® Paque Plus (GE Healthcare). Isolated cells were stained with anti-mouse F4/80 (BM8, Biolegend, 123131), anti-mouse Ly-6G (1A8, Biolegend, 127639), anti-mouse Ly-6C(HK1.4, Biolegend, 128011), anti-mouse CD11c (N418, Biolegend, 117313), anti-mouse CD103 (2E7, Biolegend, 121425), anti-mouse I-A/I-E (M5/114.15.2 Biolegend, 107611), anti-mouse/human CD11b (M1/70, Biolegend, 101254) and anti-mouse CD45 antibodies (30-F11, Biolegend, 103105) conjugated to fluorophores. Isolated cells were stained with Live/dead®-Aqua (Life Technologies) to distinguish live cells. Stained cells were fixed using 1% paraformaldehyde prior to analysis. Data acquisition was performed on a Fortessa cytometer (BD) followed by analysis on FlowJo software (Tree Star)."}, "[2]": {"test": "Serum protein binding kinetics (size exclusion column)", "type": "in vitro ADME", "conditions": "bovine, FBS/PBS 50/50 v/v % (serum proteins, mostly albumin), pH 7.4; within 30 min, FBS/PBS 50/50, 37° C.", "method": "FIG. 15 Reaction kinetics of SH1, ICG, and IR-780 to serum proteins, mostly albumin. 50 nmol of each dye was mixed with 1 ml of FBS/PBS (pH 7.4) 50/50 v/v %, incubated at 37° C., and analyzed using a BioResolve size exclusion column (200 Å, 2.5 μm, 7.8×300 mm). The binding percentage was calculated by dividing by absorbance of bound dye at 24 h assuming the dyes can bind in maximum capacity in the protein at 24 h."}, "[3]": {"test": "In vivo biodistribution and pharmacokinetics in CD-1 mice", "set-up": "species or system mouse", "text": "In vivo biodistribution and pharmacokinetics of SH dyes: Animals were housed in an AAALAC-certified facility and were studied under the supervision of MGH IACUC in accordance with the approved institutional protocol. Six-week-old CD-1 mice (male; 25-30 g) were purchased from Charles River Laboratories (Wilmington, MA). Mice were maintained under anesthesia with isoflurane and oxygen during the preparation prior to injection. The end of the tail was cut for blood collection. Before injection, blood was sampled in capillary tubes (Fisher Scientific, Pittsburgh, PA) as a reference. […] Mice were imaged using the in-house built NIR-II imaging system. After 24 h post-injection, mice were sacrificed to image organs. At least 3 mice were analyzed for each sample. Results were presented as an exponential decay curve using Prism software version 9.0.2 (GraphPad, San Diego, CA)."}, "[4]": {"test": "In vivo biodistribution study of NIR fluorophores in CD-1 mice", "set-up": "species or system mouse", "conditions": "25 nmol intravenous, 4 h post-injection; listed as 18", "method": "In Vivo Biodistribution Study of NIR Fluorophores: Under the supervision of the MGH IACUC, animals were housed in an AAALAC-certified facility and studied according to institutional protocol #2016N000136. In preparation for injection, CD-1 mice (25-30 g, 6 weeks, Charles River Laboratories, Wilmington, MA) were anesthetized with isoflurane and oxygen. A 10 mM stock solution of NIR fluorophores was prepared in DMSO, and 25 nmol of each molecule was diluted in BSA-containing saline (5 wt/v %) for intraoperative imaging. After 4 h post-injection, mice were imaged. For each experiment, camera exposure time and image normalization were held constant.\nQuantitative Analysis: The fluorescence and background intensity of a region of interest (ROI) over each tissue was quantified using ImageJ software (NIH, Bethesda, MD) version 1.45q. The signal-to-background ratio (SBR) was calculated as SBR=fluorescence/background, where background is the signal intensity of neighboring tissues such as muscle. All NIR fluorescence images for a particular fluorophore were normalized identically for all conditions of an experiment."}},
  "note": "“Also recorded” adds a separate entry of the source.",
  "data": [
    {"smiles": "CCCCN1/C(=C/C=C2\\CCCC(/C=C/C3=[N+](CCCC)c4ccc(Cl)cc4C3(C)C)=C2Cl)C(C)(C)c2cc(Cl)ccc21", "note": "[SH1, 1-butyl-2-((E)-2-((E)-3-(2-((E)-1-butyl-5-chloro-3,3-dimethylindolin-2-ylidene)ethylidene)-2-chlorocyclohex-1-en-1-yl)vinyl)-5-chloro-3,3-dimethyl-3H-indol-1-ium]", "values": [
      {"measurement": "targeted tumor-associated immune cells", "setting": "[1]; CD11b+ DCs", "result": 45.4, "unit": "%"},
      {"measurement": "targeted tumor-associated immune cells", "setting": "[1]; CD103+ DCs", "result": 23.8, "unit": "%"},
      {"measurement": "targeted tumor-associated immune cells", "setting": "[1]; Ly6C^high monocyte", "result": 48.6, "unit": "%"},
      {"measurement": "targeted tumor-associated immune cells", "setting": "[1]; Ly6C^low monocyte", "result": 43.1, "unit": "%"},
      {"measurement": "targeted tumor-associated immune cells", "setting": "[1]; Macrophage", "result": 45.7, "unit": "%"},
      {"measurement": "cells identified as targeted TAICs in the tumor region", "setting": "[1]; tumor", "result": "macrophages, Ly6C^low monocytes, and dendritic cells"},
      {"measurement": "fraction unbound at 30 min, 50 μM", "setting": "[2]", "result": "~0.65"},
      {"measurement": "pharmacokinetic model", "setting": "[3]; 1 μmol/kg intravenous", "result": "one-compartment model"},
      {"measurement": "time to complete distribution", "setting": "[3]; 1 μmol/kg intravenous", "result": "≤ 24", "unit": "h"},
      {"measurement": "organ distribution", "setting": "[3]; 24 h post-injection", "result": "major distribution in the liver and spleen"},
      {"measurement": "half-life", "setting": "[3]; male, CD-1, mouse, whole blood, 1 umol/kg, 1 μmol/kg intravenous, read-out: elimination blood half-life t½ (converted)", "result": "5.39 ± 1.53", "unit": "h"},
      {"measurement": "tissue/organ signals", "setting": "[4]", "result": "high signals in the primary and secondary lymphoid tissues; also recorded: higher signals in the bone marrow, spleen, and lymph nodes"}
    ]}
  ]
}
